Assay results from ChEMBL document CHEMBL3392924, “MMV box selection for compounds with potential use in combination with artemisinin using S. cerevisiae”.

System: Saccharomyces cerevisiae
Assay: Assay utilized the disc diffusion method with the observance of a clear zone indicating inhibition of growth. Synthetic complete medium containing 3% glycerol as a carbon source (SCG) was used in each assay. 10 uL of each compound was added to a paper disc which was placed on SCG and SCG+Artemisinin (0.2 uM) plates seeded with 10e6 yeast cells (WC081 strain: Mat a, leu2 delta 0, lys2 delta 0, ura3 delta 0, his3 delta 1, pdr1 delta::HIS3, pdr3 delta::kanMX4, derived from BY4742, regulators of Multi-drug resistance transporters have been deleted to enhance toxicity of compounds). Plates were incubated at 30 degrees C for 5 days and clear zones were measured. Compounds that produced a larger clear zone in the presence of artemisinin was considered to have an additive interaction with artemisinin. Results are reported as diameter of clear zone on SCG+artemisinin plates - diameter of clear zone on SCG plates without artemisinin.
Format: organism-based
Details: in vivo, 120 h

| Compound | Diameter of inhibition zone [mm] |
| --- | --- |
| CCC(c1ccccc1)c1nn2c(-c3cccs3)nnc2s1 (centres undefined) | 0 |
| Cc1cc(Nc2ccc3ccccc3c2)n2ncnc2n1 | 7 |
| OC(CNC1CCCCC1)Cn1c2ccccc2c2ccccc21 (centres undefined) | 0 |
| COc1cccc(C=Cc2nc(=O)c3ccccc3o2)c1OC | 0 |
| COc1ccc(Br)cc1C1Nc2ccc3ccccc3c2C2=C1C(=O)CC(c1ccccc1)C2 (centres undefined) | 0 |
| CCCN(CCC)CC(O)COc1ccccc1C(=O)Nc1ccccc1 (centres undefined) | 0 |
| CCCCCC(=O)N1c2ccccc2N=C2CC(c3ccc(OC)c(OC)c3)CC(O)=C2C1c1ccc(C(F)(F)F)cc1 (centres undefined) | 0 |
| COc1ccccc1NC1=C(N2CCCCC2)C(=O)c2ccccc2C1=O | 0 |
| Fc1ccc2[nH]c3c(NCCCN4CCOCC4)ncnc3c2c1 | 0 |
| CN1CCN(c2ccc(Nc3c4ccccc4nc4ccccc34)cc2)CC1 | 0 |
| Cc1cccc(Nc2nc(N)c3ccccc3n2)c1.Cl | 0 |
| Cc1cc(NCCN2CCCCC2)c2ccc3ccccc3c2n1 | 0 |
| COc1ccc(C(C)=O)cc1N1C(=O)C2C(C1=O)C1(c3ccccc3)C(=O)C2(c2ccccc2)C(c2ccc(C)cc2)=C1c1ccc(C)cc1 (centres undefined) | 0 |
| CCN(CC)CCNc1ccnc2cc(Cl)ccc12 | 0 |
| Cc1cc(C=C2SC(=Nc3ccccc3)N(C3CCCC3)C2=O)c(C)n1-c1ccc(Cl)cc1 | 0 |
| COc1ccc(-c2nc3cc(Cc4ccc5[nH]c(-c6ccc(OC)cc6)nc5c4)ccc3[nH]2)cc1 | 0 |
| CCOC(=O)c1cnc2ccc(CC)cc2c1O | 0 |
| CC(C)(C)c1ccc(O)c(CNC2CCCCC2)c1 | 0 |
| Cc1ccc(N2C3c4ccccc4N(S(=O)(=O)c4ccc(C)cc4)C2c2ccccc2N3S(=O)(=O)c2ccc(C)cc2)cc1 | 0 |
| O=C(NCC(c1ccsc1)N1CCCCCC1)c1ccc(C(F)(F)F)cc1 (centres undefined) | 0 |
| CCOC(=O)c1cn(CC)c2cc(N3CCCCC3)c(F)cc2c1=O | 0 |
| CCc1c(C)c(=N)c2ccccc2n1C.I | 0 |
| CCOc1cc2c(cc1OCC)C(c1cc(OC)c(O)cc1Cl)NCC2 (centres undefined) | 0 |
| CCOC(=O)c1cn(CC)c2cc(N(C)CCc3ccc(OC)c(OC)c3)c(F)cc2c1=O | 0 |
| CCc1ccc(Nc2cc(C)c3ccc(O)cc3n2)cc1.Cl | 0 |
| CCOC(=O)c1c(NC(=O)c2ccccc2)sc2c(O)c(CN(CC)CC)ccc12 | 0 |
| Cl.Oc1ccccc1CNCC12CC3CC(CC(C3)C1)C2 | 0 |

| Compound | Diameter of inhibition zone [mm] |
| --- | --- |
| Cc1cc(C)c2c(c1)OCN(Cc1ccccc1Cl)C2 | 0 |
| CSc1ccccc1C(=O)Nc1nc(-c2ccccn2)cs1 | 3 |
| COc1ccc(-c2nc(NC(=O)CS(=O)(=O)c3ccc(F)cc3)sc2C)cc1 | 0 |
| CCCc1cc(O)c2c3c(c(=O)oc2c1)CN(C)CC3 | 0 |
| COc1ccc(NC(=O)C2c3ccccc3C(=O)N(CC(C)C)C2c2cccs2)cc1Cl (centres undefined) | 0 |
| CCOc1ccc(-c2nonc2NC(=O)c2cccc(C)c2)cc1OCC | 0 |
| CC1CCN(Cc2ccc(NC(=O)c3cc4ccc5cccnc5c4[nH]3)cc2)CC1 | 0 |
| COc1ccc(-c2c(C)nn3c(N)c(C#N)cnc23)cc1OC | 0 |
| CCn1c(CN2CCN(Cc3ccccc3)CC2)nc2cc(NC(=O)c3cccs3)ccc21 | 0 |
| Cc1ccc(-c2cc3c(nn2)-c2ccccc2C3=O)cc1 | 0 |
| Cc1cc(Nc2ccc(C)c(Cl)c2)n2nc(C(F)(F)F)nc2n1 | 0 |
| COc1ccc(-n2ccnc2SCC(=O)Nc2cc(C)ccc2C)c(OC)c1 | 0 |
| CCN(CC)CCNc1ncnc2c1[nH]c1ccc(Cl)cc12 | 0 |
| Cc1ccc(Nc2nc(NCCO)c3ccccc3n2)cc1C | 0 |
| CCOC(=O)c1ccc2[nH]c(-c3ccccc3)cc(=O)c2c1 | 0 |
| COc1ccc(C2=C(c3ccc(OC)cc3)C3(c4ccccc4)C(=O)C2(c2ccccc2)C2C(=O)N(c4ccc(C)cc4)C(=O)C23)cc1 (centres undefined) | 0 |
| CCOC(=O)C1=C(c2ccccc2)N=c2sc(=Cc3cc(C)n(-c4ccc(F)cc4)c3C)c(=O)n2C1c1cccc(OC)c1OC (centres undefined) | 0 |
| O=C(O)C1Cc2c([nH]c3ccccc23)C(c2ccc(Cl)cc2Cl)N1 (centres undefined) | 0 |
| COc1ccc2c(=O)cc(C(Cl)(Cl)Cl)oc2c1 | 0 |
| CN(C)c1ccc(C=Cc2nc(=O)c3ccccc3o2)cc1 | 0 |
| COc1cc(OC)c(N(C)C(=O)c2cc3c(s2)-c2ccccc2S(=O)(=O)C3)cc1Cl | 0 |
| CC1CN(C(=O)c2sc3ccccc3c2Cl)CC(C)O1 (centres undefined) | 0 |
| C[n+]1c2ccccc2nc2ccc(NCCO)cc21 | 0 |
| CN(C)CCCNc1c2ccccc2nc2ccccc12 | 0 |
| c1ccc(Cn2c(N=Nc3c(Nc4ccccc4)ccc4ccccc34)nc3ccccc32)cc1 | 1 |
| CCCc1c(CC)c(=N)c2ccccc2n1C | 0 |
| CCOC(=O)c1c(C)n(-c2ccc(Cl)cc2)c2ccc(OC(=O)C=Cc3ccccc3)cc12 | 0 |

| Compound | Diameter of inhibition zone [mm] |
| --- | --- |
| COc1cccc(NC(=O)[C@H](C(C)C)n2c(=O)[nH]c3ccccc3c2=O)c1 | 0 |
| CNCCCNc1ccnc2cc(Cl)ccc12 | 0 |
| Cc1ccc(-c2cc3nc4c(c(O)n3n2)CCCC4)cc1 | 0 |
| c1ccc2cc3c(Nc4ccc(N5CCOCC5)cc4)ccnc3cc2c1 | 0 |
| CCN1CCN(Cc2ccc(NC(=O)c3cc4ccc5cccnc5c4[nH]3)cc2)CC1 | 0 |
| COc1ccccc1CNC(=O)CCn1c(=O)[nH]c2ccsc2c1=O | 0 |
| CCC1(C)CC(CCNCc2ccccc2O)(c2ccc(C)cc2)CCO1 (centres undefined) | 0 |
| O=[N+]([O-])c1ccc(C=NNc2nc3ccccc3[nH]2)cc1 | 0 |
| CCN1CCCC1CNc1[nH]cnc2c3cc(Cl)ccc3nc1-2 (centres undefined) | 0 |
| COc1ccc(NC(=O)C2c3ccccc3C(=O)N(CC(C)C)C2c2cccs2)cc1 (centres undefined) | 0 |
| COc1ccc(-c2cc3c(SCC(=O)Nc4cc(C(F)(F)F)ccc4Cl)nccn3n2)cc1 | 0 |
| Cc1ccc(-c2cc3c(SCC(=O)Nc4cc(C(F)(F)F)ccc4Cl)nccn3n2)cc1 | 0 |
| CSC1=NC(=Nc2c(C)cccc2C)C2(CCC(C(C)(C)C)CC2)N1c1ccc(Cl)cc1 (centres undefined) | 0 |
| C=CC12CCN(CC1)C(C(O)c1ccnc3ccc(OC)cc13)C2.Cl (centres undefined) | 0 |
| CCOC(=O)c1cnc2c(C)cc(C)cc2c1Nc1ccc(OC)c(OC)c1 | 0 |
| Cc1ccc(N2C(=O)C3C(C2=O)C2(c4ccccc4)C(=O)C3(c3ccccc3)C(c3ccccc3)=C2c2ccccc2)cc1 (centres undefined) | 0 |
| COc1ccc(C=C2SC(=N)N(c3ccccc3OC)C2=O)cc1 | 0 |
| CCCCCCOC(=O)C1=C(C)NC(=O)NC1c1ccccc1F (centres undefined) | 0 |
| Cc1cc(NC(=O)C2c3ccccc3C(=O)N(CC(C)C)C2c2cccs2)no1 (centres undefined) | 0 |
| Cc1cc(Nc2ccc(Cl)cc2)n2nc(C(F)(F)F)nc2n1 | 0 |
| Cc1cc(C)cc(Nc2cc(C)nc3nc(C(F)(F)F)nn23)c1 | 0 |
| CN(C)c1ccc(C(O)(c2ccc(N(C)C)cc2)c2ccc(N(C)C)cc2)cc1 [METHYLROSANILINE] | 0 |
| COc1ccc2c(c1)OC(O)(C(F)(F)C(F)(F)F)CC2=O (centres undefined) | 0 |
| COc1ccccc1CNC(=O)CCn1c(=O)[nH]c2ccccc2c1=O | 0 |
| COc1ccc(C(=O)Nc2nonc2-c2ccc(OC)c(OC)c2)cc1Cl | 0 |
